Laboratory results published in patent US5965539A, “Inhibitors of prenyl transferases” (Univeristy of Pittsburgh, priority 1996, dated 1999).
Like-named read-outs stand apart in the source and are kept apart here.

How the values were obtained:
Rap1A processing = Rap1A processing assay in NIH 3T3 cells overexpressing oncogenic H-Ras, immunoblot; type: cell-based; settings: for IC50: whole cells
Protocol: H-RasF cells (45) were seeded on day 0 in 100 mm Dishes (costar) in Dulbecco's modified Eagles medium (GIBCO) and allowed to grow to 40-60% confluency. […] On day 3, cells were washed one time with ice cold PBS and were collected and lysed by incubation for 30-60 min on ice in lysis buffer (41). Lysates were cleared (14,000 rpm, 4° C., 15 min) and supernatants collected. Equal amounts of lysate were separated on a 12.5% SDS-PAGE, transfered to nitrocellulose, and a western blot performed using a anti-Ras antibody (Y13-238, ATCC) or anti-Rap1A antibody (Santa Cruz Biotechnology, Santa Cruz, Calif.). Antibody reactions were visualized using peroxidase-conjugated goat anti-rat IgG for Y13-238 and peroxidase-conjugated goat anti-rabbit IgG for Rap1A and an enhanced chemiluminescence detection system (ECL; Amersham Corp.)
H-Ras cells (45) and K-Ras4B Cells (32) were kind gifts from Dr. Channing Der and Dr. Adrienne Cox (University of North Carolina, Chapel Hill). Means of obtaining these cell lines will be easily recognized by the skilled practitioner. Cells were seeded on day 0 in 100 mm dishes in Dulbecco's modified Eagles medium supplemented with 10% calf serum and 1% penicillin-streptomycin. […] On day 3, cells were washed and lysed in lysis buffer containing 50 mM HEPES, pH 7.5, 10 mM NaCl, 1% TX-100, 10% glycerol, 5 mM MgCl2, 1 mM EGTA, 25 μg/ml leupeptin, 2 mM PMSF, 2 mM Na3 VO4, 1 mg/ml soybean trypsin inhibitor, 10 μg/ml aprotinin, 6.4 mg/ml Sigma-104® phosphatase substrate. Lysates were cleared (14,000 rpm, 4° C., 15 min) and equal amounts of protein were separated on a 12.5% SDS-PAGE, transferred to nitrocellulose, and immunoblotted using an anti-Ras antibody (Y13-259, ATCC) or an anti-RapIA antibody (SC-65, Santa Cruz Biotechnology, Santa Cruz, Calif.). Antibody reactions were visualized using either peroxidase-conjugated goat anti-rat 1 gG (for Y13-259), or peroxidase-conjugated goat anti-rabbit 1 gG (for Rap1A) and an enhanced chemiluminescence detection (ECL, Amersham Corp.), as described previously (41).

[1] = system: oncogenic H-Ras activation of MAPK; assay: Oncogenic H-Ras activation of MAP kinase, immunoblot; type: cell-based; settings: H-RasF cells
Excerpt: (§1) Equal amounts of protein were separated on a 15% SDS-PAGE, transferred to nitrocellulose, and immunoblotted using an anti-MAP kinase antibody (erk2, monoclonal, UB1, Lake Placid, N.Y.). Antibody reactions were visualized using peroxidase-conjugated donkey anti-mouse IgG (Jackson ImmunoResearch Laboratories Inc., West Grove, Pa.) and an enhanced chemiluminescence detection system (ECL, Amersham Corp.)

[2] = system: oncogenic K-Ras4B activation of MAP kinase; assay: Oncogenic K-Ras4B activation of MAP kinase, immunoblot; type: cell-based; settings: 0-30 μM tested
Excerpt: as §1

[3] = system: Calu-1 human lung carcinoma; settings: 50 mg/kg once daily
Excerpt: Calu-1 (Panel A) and NCI-H810 cells (Panel B) were purchased from ATCC and grown in McCoy's 5A medium in 10% FBS (Fetal Bovine Serum) and RPMI 1640 in 10% FBS, respectively. The cells were harvested, resuspended in PBS and injected s.c. into the right and left flank of 8 week old female nude mice (10^7 cells/flank). Nude mice (Harlan Sprague Dawley, Indianapolis, Ind.) were maintained in accordance with the Institutional Animal Care and Use Committee (IACUC) procedures and guidelines. On day 32 after s.c. implantation of tumors, animals were dosed i.p. with 0.2 ml once daily for 36 days. […] The tumor volumes were determined by measuring the length (l) and the width (w) and calculating the volume (V=(l)×(w)^2 /2). Data are presented as the average volume of eight tumors in each group for each cell line. Statistical significance between control and treated groups were evaluated by using student t test (*P<0.05).
In this model, tumors from two human lung carcinoma cell lines are implanted subcutaneously. One of these (Calu-1) harbors a K-Ras oncogenic mutation and has a deletion of the tumor suppressor gene p53. The other human lung carcinoma ([…]) has no Ras mutations.

[4] = system: H-RasF transformed NIH 3T3 cells; settings: 50 mg/kg once daily
Protocol: A. Antitumor efficacy was carried out as described in FIG. 3 except that animals were randomly assigned to four groups each of 4 mice each (2 tumors per mouse). […] B. Ras processing was carried out 5 hours after the last treatement on day 17. Tumors were extracted from the animals, tissumized, and lysed in lysis buffer as described in FIG. 1. Lysates (25 μg) were electrophoresed on a 12.5% SDS-PAGE and immunoblotted with anti-Ras antibody Y13-238 as described previously. The blots were then reprobed with anti-Rap1A antibody (Santa Cruze Biotechnologies, Santa Cruz, Calif.).
The tumor sizes at the end of 17 days were 2490 mm^3 for saline, 1793 mm^3 for 10 mg/kg, 1226 mm^3 for 50 mg/kg and 624 mm^3 for 100 mg/kg treated animals. […] Tumors from control animals contained only fully processed Ras which migrates faster in SDS-PAGE gels (FIG. 11B). […] Thus, the extent of tumor growth inhibition correlated with the extent of inhibition of Ras processing.

Ras nucleotide state = settings: H-RasF cells
Protocol: H-RasF cells were seeded and treated as above for Ras/Raf interaction and Ras and Rap1A processing. On day 2, however, cells were labeled overnight with [^32 P] orthophosphate at 100 μCi/mo (Amersham PBS13) in 10 ml DMEM-phosphate supplemented with 10% calf serum, 1 mg/ml BSA and 20 mM HEPES, pH 7.5. On day 3, the medium was removed and cells were washed one time in ice-cold PBS, scraped from the plate with a cell scraper, collected and centrifuged. The cell pellet was resuspended in ice-cold hypotonic buffer listed above and the cytosol and membrane fractions were separated according to the above description for Ra/Raf association. The cytosol and membrane fractions were lysed on ice for 60 min in 50 mM Tris, pH 7.5, 5 mM MgCl2, 1% Triton X-100 (TX-100), 0.5% DOC, 0.05% SDS, 500 mM NaCl, 1 mM EGTA, 10 μg/ml aprotinin, 10 μg/ml soybean trypsin inhibitor, 25 μg/ml leupeptin, 1 mM DTT, 1 mg/ml BSA. Lysates were cleared and equal amounts of protein were immunoprecipitated using anti-Ras antibody (Y13-259) along with 30 μl Protein A-Agarose goat anti-rat IgG complex (Oncogene Science) for 60 min at 4° C. […] Plates were analyzed by autoradiogram.

Raf-1 kinase = settings: H-RasF cells
Protocol: Raf-1 kinase was assayed by determining the ability of Raf to transfer phosphate from [γ-^32 P] ATP to a 19-mer peptide containing an autophosphorylation site. Membrane and cytosol fraction isolation and Raf immunoprecipitates were washed three times with cold HEPES buffer and twice with kinase buffer (50 mM Tris, pH 7.5, 150 mM NaCl, 12 mM MnCl2, 1 mM DTT, 0.2% Tween 20. Immune complex kinase assays were performed by incubating immunoprecipitaes from membrane and cytosol fractions in 96 μl of kinase buffer with 20 μCi of [γ-^32 P]ATP (10 mCi/ml, Amersham) and 2 μl of the Raf-1 substrate peptide (1 mg/ml, Promega) for 30 min at 25° C. The sequence of the Raf-1 substrate peptide is [sequence]. The phosphorylation reaction was terminated by spotting 50 μl aliquots of the assay mixture onto Whatman P81 for 40 min in 0.5% orthophosphoric acid and air dried. The amount of ^32 P incorporated was determined by liquid scintillation counting.

[5] = system: H-RasGG activation of MAPK; settings: 5 μM, FIG. 5B
[6] = system: oncogenic Raf activation of MAPK; settings: 5 μM, FIG. 5B
[7] = system: Raf-transformed NIH 3T3 cells; settings: 50 mg/kg once daily

COC(=O)[C@H](CCSC)NC(=O)c1ccc(NC[C@@H](N)CS)cc1-c1ccccc1 [FTI-277, 4-N-[2(R)-Amino-3-mercaptopropyl]amino-2-phenylbenzoyl methionine methyl ester]
IC50 (Rap1A processing; Table 5, read-out: In Vivo Processing IC50 Rap1A): 50 µM
inhibition of processing of geranylgeranylated Rap1A (Rap1A processing; concentrations as high as 10 μM): did not inhbit processing
IC50 (Rap1A processing; read-out: Rap1A processing IC50): 50 µM
lowest effective concentration, inhibition of oncogenic Ras activation of MAPK [1]: 300 nM
lowest concentration inhibiting K-Ras4B MAP kinase activation [2]: 30 µM
tumor growth of Calu-1 [3]: inhibited the growth of Calu-I cells to the same extent
tumor growth of H-RasF transformed NIH 3T3 cells [4]: inhibited tumor growth
nucleotide state of non-farnesylated cytosolic Ras (Ras nucleotide state): GTP bound
oncogenic Ras-F induced activation of Raf kinase in the plasma membrane (Raf-1 kinase): suppressed this activation
block of H-RasGG activation of MAPK [5]: able to block H-RasF but not H-RasGG activation of MAPK
block of oncogenic Raf activation of MAPK [6]: not blocked
growth of Raf-transformed NIH 3T3 cells [7]: had no effect
